Experiment [1] has as its target T1, GK-GKRP (glucokinase / glucokinase regulatory protein) (Homo sapiens, UniProt Q14397).
T1 sequence (Q14397 1-625): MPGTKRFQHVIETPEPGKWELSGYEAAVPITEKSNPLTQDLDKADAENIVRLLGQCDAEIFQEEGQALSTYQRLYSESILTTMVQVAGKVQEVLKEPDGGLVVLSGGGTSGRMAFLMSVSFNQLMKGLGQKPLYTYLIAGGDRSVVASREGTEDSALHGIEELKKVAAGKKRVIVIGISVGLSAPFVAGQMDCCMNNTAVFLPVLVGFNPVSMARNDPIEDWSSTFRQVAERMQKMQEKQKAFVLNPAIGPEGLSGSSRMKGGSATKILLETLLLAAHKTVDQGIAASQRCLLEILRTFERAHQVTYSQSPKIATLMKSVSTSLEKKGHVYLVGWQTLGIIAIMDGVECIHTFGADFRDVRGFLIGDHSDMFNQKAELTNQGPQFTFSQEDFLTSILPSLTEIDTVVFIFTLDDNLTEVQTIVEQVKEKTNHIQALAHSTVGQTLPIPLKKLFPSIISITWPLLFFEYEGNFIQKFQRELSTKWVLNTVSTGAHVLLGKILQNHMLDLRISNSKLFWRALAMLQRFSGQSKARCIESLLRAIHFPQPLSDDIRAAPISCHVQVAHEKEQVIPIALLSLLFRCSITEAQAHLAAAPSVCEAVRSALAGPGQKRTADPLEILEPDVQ
As to the kind of experiment: GKRP LC MS/MS Biochemical Assay (LCMS/MS). As to conditions: formation of 13C-glucose-6-phosphate from 13C-glucose by LC MS/MS, human His-hepatic GK, fructose-6-phosphate. How it is done: GKRP LC MS/MS Biochemical Assay (LCMS/MS)
This assay is used to directly measure the formation of ^13C-glucose-6-phosphate from ^13C-glucose by LC MS/MS. Begin by preparing the following solutions: Compound Buffer (CB): 50 mM Tris, pH 7.5/4 mM MgCl2/6% DMSO/fresh 10 mM DTT from 1M frozen stock. Enzyme Buffer (EB): 50 mM Tris, pH 7.5/4 mM MgCl2/6% DMSO/fresh 0.1% BSA/fresh 0.01% Brij-35 (10% BSA and 1% Brij-35 stock). GK (Glucokinase) Working Stock (5×): Dilute human His-hepatic GK to 30 nM in EB buffer. […] Seal the plate and incubate for 30 minutes at room temperature while mixing. After 30 minutes add 10 μl of GK Working Stock (5×). Re-seal the plate and incubate for another 30 minutes at room temperature while mixing. After the second 30 minutes, stop the reaction by the addition of 50 μl of 100% acetonitrile, seal, and mix for 5-10 minutes. Run 10 μl of this sample through the LC MS/MS (API 3200, Applied Biosystems, Carlsbad, Calif.). […]
(§1) In the Examples, the assays are referred to as “LCMS/MS” or “Binding.”

In experiment [2] the target is T2, GK-GKRP (interaction between glucokinase and glucokinase regulatory protein) (Homo sapiens, UniProt Q14397).
T2 construct: made in house; host or cells: GKRP: baculovirus system
T2 sequence (Q14397 1-625): T1 sequence (Q14397 1-625)
Briefly: GK-GKRP Binding Assay (Binding), AlphaScreen. The settings on record: avi-tagged GKRP, GK-fluorescein, AlphaScreen beads, 1 μM sorbitol-6-phosphate; read-out: GK-GKRP IC50 (Binding). How it is done:
GK-GKRP Binding Assay Protocol (Binding)
This assay is used to directly measure the interaction between glucokinase (GK) and glucokinase regulatory protein (GKRP). Begin by preparing the following solutions. Assay Buffer: 20 mM Tris, pH 7.5/0.05% BSA/1 mM DTT/1 μM sorbitol-6-phosphate. […] Combine the following reagents in a white 96-well half area plate. Pipette 14 μl of the diluted avi-tagged GKRP into each well. Add 1 μl of compound to be tested and incubate at room temperature for 20 minutes. After 20 minutes, add 5 μl of assay buffer containing 6 nM GK-fluorescein. […] Incubate in a dark room for 2 hours at room temperature. After 2 hours read the plate using an Envision plate reader (Perkin Elmer, Waltham Mass.).
Recombinant human glucokinase (hepatic) was purified and formulated in 50 mM Tris (pH 7.5), 150 mM NaCl and 20 mM glucose previous to labeling with fluorescein. […] Unreacted dye was removed by extensive dialysis into the final formulation buffer: 25 mM Tris (pH 7.2), 150 mM NaCl, 10% glycerol and 2 mM DTT. The human glucokinase regulatory protein construct was designed with a C-terminal avitag and was expressed in a baculovirus system. Purified GKRP was incubated overnight with recombinant biotin ligase in the presence of D-biotin, ATP and MgCl2. GKRP was isolated from reaction components by chromatography on a Superdex 200 size exclusion column into: 50 mM HEPES, 150 mM NaCl and 5 mM DTT. […] Proteins were quantitated according to their calculated molar extinction coefficients at A280 and were stored at −80° C.
as §1
(In general: Alpha assays give light when donor and acceptor beads are brought close together.)

One may read the EC50 as the concentration at which the effect is half-maximal. Lower therefore signals greater potency. The IC50 is the point on the concentration scale where inhibition reaches its midpoint. `Cc1ccccc1C(NS(=O)(=O)c1ccc2c(c1)OCCCO2)c1oc2ccccc2c1C` (racemic) [Example 45, N-((3-methyl-1-benzofuran-2-yl)(2-methylphenyl)methyl)-3,4-dihydro-2H-1,5-benzodioxepine-7-sulfonamide] displayed an EC50 in experiment [1] of 2 µM. Also, the IC50 in experiment [2] is 1.7 µM.

With `CSc1ccccc1C(NS(=O)(=O)c1ccc2c(c1)OCCCO2)c1nc2ccccc2s1` (racemic) [Example 52, N-(1,3-benzothiazol-2-yl(2-(methylsulfanyl)phenyl)methyl)-3,4-dihydro-2H-1,5-benzodioxepine-7-sulfonamide], it took 0.029 µM to reach a half-maximal effect in experiment [1] (EC50). For the same molecule, the IC50 in experiment [2] turned out to be 0.006 µM. On the same counts, the results for `C[C@](O)(c1ccnc(-c2cccc3cc([C@H](NS(=O)(=O)c4ccc5c(c4)OCCCO5)c4ccccc4)sc23)c1)C(F)(F)F` (single isomer, unassigned) [Example 70 Peak #2] are 0.022 µM and 0.006 µM. On to `C#Cc1ccccc1C(NS(=O)(=O)c1ccc2c(c1)OCCCO2)c1cc2ccccc2s1` (racemic) [Example 39, N-(1-benzothiophen-2-yl(2-ethynylphenyl)methyl)-3,4-dihydro-2H-1,5-benzodioxepine-7-sulfonamide], for which, in experiment [1], the EC50 is 0.037 µM. Further, the IC50 in experiment [2] turned out to be 0.017 µM. On the same counts, the results for `O=S(=O)(NC(c1ccccc1)c1cc2cccc(-c3ccccc3)c2s1)c1ccc2c(c1)OCCCO2` (racemic) [Example 73, N-(phenyl(7-phenyl-1-benzothiophen-2-yl)methyl)-3,4-dihydro-2H-1,5-benzodioxepine-7-sulfonamide] are 1 µM and 1.2 µM. Take `O=S(=O)(N[C@@H](c1nc2cccnc2s1)c1ccccc1Cl)c1ccc2c(c1)OCCCO2` (single isomer, unassigned) [Example 68 Peak #2]: in experiment [1], the EC50 came to 0.029 µM. For the same molecule, the IC50 in experiment [2] is 0.02 µM. With `CSc1ccccc1[C@H](NS(=O)(=O)c1ccc2c(c1)OCCCO2)c1cc2ccccc2o1` (single isomer, unassigned) [Example 19 Peak #1], the concentration giving a half-maximal response (EC50) in experiment [1] was determined as 0.29 µM. Also, the IC50 in experiment [2] was found to be 0.97 µM. In experiment [1], `O=S(=O)(NC(c1ccccc1)c1nc2ccccc2o1)c1ccc2c(c1)OCCCO2` (racemic) [Example 54, N-(1,3-benzoxazol-2-yl(phenyl)methyl)-3,4-dihydro-2H-1,5-benzo dioxepine-7-sulfonamide] displayed an EC50 of 0.75 µM. In addition, in experiment [2], the IC50 amounted to 1.1 µM.

Turning to `O=S(=O)(NC(c1ccccc1)c1cc2ccccc2s1)c1ccc2c(c1)OCCCO2` (racemic) [Example 57, N-(1-benzothiophen-2-yl(phenyl)methyl)-3,4-dihydro-2H-1,5-benzodioxepine-7-sulfonamide], a half-maximal effect in experiment [1] (EC50) was put at 0.11 µM. Besides, the IC50 in experiment [2] amounted to 0.31 µM. For the molecule `COc1cccnc1C(NS(=O)(=O)c1ccc2c(c1)OCCCO2)c1cc2ccccc2o1` (racemic) [Example 30, N-(1-benzofuran-2-yl(3-methoxy-2-pyridinyl)methyl)-3,4-dihydro-2H-1,5-benzodioxepine-7-sulfonamide], the EC50 in experiment [1] amounted to 0.15 µM. In experiment [2], the IC50 was 0.31 µM.

In experiment [1], `CCc1ccccc1[C@@H](NS(=O)(=O)c1ccc2c(c1)OCCCO2)c1cc2ccccc2o1` (single isomer, unassigned) [Example 6 Peak #2] yielded an EC50 of 0.04 µM. In experiment [2], the IC50 was found to be 0.11 µM. The like results for `Cc1cccnc1[C@@H](NS(=O)(=O)c1ccc2c(c1)OCCCO2)c1cc2ccccc2o1` (single isomer, unassigned) [Example 26 Peak #2] were, in that order, 0.085 µM and 0.12 µM. In experiment [1], `CSc1ccccc1C(NS(=O)(=O)c1ccc2c(c1)OCCO2)c1cc2ccccc2s1` (racemic) [Example 75, N-(1-benzothiophen-2-yl(2-(methylsulfanyl)phenyl)methyl)-2,3-dihydro-1,4-benzodioxine-6-sulfonamide] gave an EC50 of 0.34 µM. Also, the IC50 in experiment [2] was determined as 0.95 µM. The like results for `COc1ccccc1[C@H](NS(=O)(=O)c1ccc2c(c1)OCCCO2)c1cc2ccccc2s1` (single isomer, unassigned) [Example 40 Peak #1] were, in that order, 0.13 µM and 0.36 µM. The like results for `O=S(=O)(NC(c1ccccn1)c1cc2ccccc2o1)c1ccc2c(c1)OCCCO2` (racemic) [Example 25, N-(1-benzofuran-2-yl(2-pyridinyl)methyl)-3,4-dihydro-2H-1,5-benzo dioxepine-7-sulfonamide] were, in that order, 0.27 µM and 1.4 µM. On the same counts, the results for `O=S(=O)(NC(c1nc2cccnc2s1)c1ccccc1Cl)c1ccc2c(c1)OCCCO2` (racemic) [Example 68, N-((2-chlorophenyl)([1,3]thiazolo[5,4-b]pyridin-2-yl)methyl)-3,4-dihydro-2H-1,5-benzodioxepine-7-sulfonamide] are 0.063 µM and 0.054 µM. Molecule `CSc1ccccc1C(NS(=O)(=O)c1ccc2c(c1)OCCCO2)c1cc2ccccc2s1` (racemic) [Example 41, N-(1-benzothiophen-2-yl(2-(methylsulfanyl)phenyl)methyl)-3,4-dihydro-2H-1,5-benzodioxepine-7-sulfonamide] came in with an EC50 in experiment [1] of 0.027 µM. The IC50 in experiment [2] was 0.057 µM. The molecule `O=S(=O)(NC(c1ccccc1)c1cc2cc(O)ccc2s1)c1ccc2c(c1)OCCCO2` (racemic) [Example 63, N-((5-hydroxy-1-benzothiophen-2-yl)(phenyl)methyl)-3,4-dihydro-2H-1,5-benzodioxepine-7-sulfonamide] came in with an EC50 in experiment [1] of 3.2 µM. Besides, the IC50 in experiment [2] came to 4.2 µM. On the same counts, the results for `O=S(=O)(NC(c1cc2ccccc2o1)c1ccccc1I)c1ccc2c(c1)OCCCO2` (racemic) [Example 21, N-(1-benzofuran-2-yl(2-iodophenyl)methyl)-3,4-dihydro-2H-1,5-benzodioxepine-7-sulfonamide] are 0.076 µM and 0.228 µM. Consider `Cc1ccccc1C(NS(=O)(=O)c1ccc2c(c1)OCCCO2)c1cc2ccccc2o1` (racemic) [Example 2, N-(1-benzofuran-2-yl(2-methylphenyl)methyl)-3,4-dihydro-2H-1,5-benzodioxepine-7-sulfonamide], for which the EC50 in experiment [1] worked out at 0.11 µM. As to `O=S(=O)(NC(c1cc2ccccc2o1)c1ccccc1CCO)c1ccc2c(c1)OCCCO2` (racemic) [Example 16, N-(1-benzofuran-2-yl(2-(2-hydroxyethyl)phenyl)methyl)-3,4-dihydro-2H-1,5-benzodioxepine-7-sulfonamide], in experiment [1], the EC50 is 3.2 µM.

Molecule `O=S(=O)(NC(c1cccc(F)c1)c1cc2ccccc2o1)c1ccc2c(c1)OCCCO2` (racemic) [Example 24, N-(1-benzofuran-2-yl(3-fluorophenyl)methyl)-3,4-dihydro-2H-1,5-benzodioxepine-7-sulfonamide] yielded an EC50 in experiment [1] of 1.8 µM. In the case of `O=S(=O)(NC(c1ccsc1)c1cc2ccccc2o1)c1ccc2c(c1)OCCCO2` (racemic) [Example 32, N-(1-benzofuran-2-yl(3-thiophenyl)methyl)-3,4-dihydro-2H-1,5-benzodioxepine-7-sulfonamide], the midpoint of the response in experiment [1], the EC50, lay at 1.4 µM.

The values above are taken from patent US20140155415A1, “BENZ[…] BENZODIOXINE COMPOUNDS THAT INTERACT WITH G[…] FOR THE TREATMENT OF DIABETES” (priority 2011, published 2014).
